Consider six molecules from article PMC4204617 (Frontiers in Cellular Neuroscience, 2014).

“Also recorded” adds a separate entry of the source. Where no end group is shown, it is not given here.

The subject of one series is hemichannels. The following applies: cited from earlier work; for Hemichannel-only effect: ref not given. From the text: Gap junction channels form junctional plaques that are composed of two docked hemichannels oligomerized from six Cx protein subunits. […] Stehberg and collaborators have used TAT-L2 for local injection in the amygdala in in vivo animal studies on fear memory (Stehberg et al., [2012]).

In series [1] the test system is Cx43 hemichannels in astrocytes. The following applies: hippocampal slices; ref Rouach et al., 2008, Supplementary Data Figure S5; cited from earlier work. As to the method:
The inhibitory effect of Gap19 in situ was then tested by performing the Etd^+ uptake assay in acute hippocampal brain slices from GFAP-eGFP transgenic mice. […] This increase ... || Gap19 is a peptide that corresponds to a sequence on the cytoplasmic loop (CL) of Cx43. Its sequence is part of the L2 domain that is involved in interactions of the CL with the CT-tail of Cx43. […] This differential effect is most probably the consequence of distinct channel configurations of hemichannels as compared ...

Another series addresses Gap19 (UniProt P17302). The conditions noted are these: cited from earlier work.
Series [2] deals with T1, Cx43 hemichannels (Mus musculus, UniProt P23242). In words: Glutamate-triggered ATP release in cultured cortical astrocytes. Format: cell-based, mouse (OF1). The arrangement: endogenous in cells; host or cells: primary cortical astrocytes from newborn OF1 mice. The conditions noted are these: primary cortical astrocyte cultures; glutamate 100 μM, 15 min; Gap19 30 min pre-incubation; n = 6 independent experiments; read-out: IC50 / half-maximal effect concentration for glutamate-triggered ATP release. As for the experimental part: (§1) Primary astrocyte cultures were prepared from the cortex of newborn (1–2 days) OF1 mice as described previously (Meme et al., [2006]). Briefly, cells were seeded into 100-mm diameter plastic dishes (Nunc, Roskilde, Denmark) at the density of 3 × 10^6 cells/dish in DMEM (Sigma-Aldrich, St-Louis MO, USA), supplemented with penicillin (5 U/ml), streptomycin (5 μg/ml) (Invitrogen, Carlsbad, CA, USA) and 10% FCS (Hyclone, Logan, UT, USA). The medium was changed twice a week. When cells reached confluence, around 10 days in vitro (DIV), they were harvested with trypsin-EDTA (Invitrogen). […]
(§2) The data are expressed as mean ± s.e.m., with “n” denoting the number of independent experiments. […] In experiments where the effects of different treatments were assessed on normalized data, non-parametric ANOVA Kruskal-Wallis tests were performed. […] Unless stated otherwise, significance as compared to control condition based on the raw data (before normalization) was assessed by two-tailed Wilcoxon signed-ranked tests. […]
While in vivo astrocytes express two major Cxs, Cx43 and Cx30, astrocytes in primary culture offer the advantage that only one of them is expressed, namely Cx43 (Giaume et al., [1991a]). Indeed, Cx30 is detected in astrocytes only either after 10–11 weeks of solo-culture (Kunzelmann et al., [1999]) or in 3 week-old astrocytes after 1 week of co-culture with neurons (Koulakoff et al., [2008]). […]

Series [3] addresses T1, Cx43 hemichannels. Put plainly: Etd+ uptake in astrocytes of acute hippocampal slices, Ca2+-free solution. The class given is cell-based, mouse (GFAP-eGFP). Further details: performing the Etd^+ uptake assay in acute hippocampal brain slices from GFAP-eGFP transgenic mice; from tissue; host or cells: acute hippocampal slices of GFAP-eGFP mice (GFP-positive astrocytes). The conditions noted are these: zero extracellular Ca2+, "in the 250 μM range", read-out: Half-maximal effect concentration, zero extracellular Ca2+ in brain slices. As for the experimental part: GFAP-eGFP mice (Nolte et al., [2001]) were decapitated and their brains were rapidly removed. Hippocampi were dissected and placed in ice-cold artificial cerebrospinal fluid (ACSF) equilibrated with 95% O2–5% CO2. Transverse hippocampal slices (300–400 μm thick) were cut on a vibroslicer (Leica VT 1000S, Wetzlar, Germany) and transferred to a holding chamber where they rested on a nylon mesh, submerged in oxygenated ACSF at room temperature for a stabilization period of 45 min before recodings. The ACSF solution contained in mM: NaCl 134; KCl 2.8; NaHCO3 29; NaH2PO4 1.1; glucose 12; MgSO4 1.5; CaCl2 2.5.
In slices derived from GFAP-eGFP mice, astrocytes were identified by GFP fluorescence and hemichannel activity was investigated. […] In order to be sure that we were quantifying Etd^+ uptake in astrocytes, in this study hemichannel activity was only considered in GFP-positive cells. […] Fluorescence was quantified in arbitrary units (AU), Image J program (NIH software). Dye uptake intensity was evaluated as the difference (F—F0) between the fluorescence (F) from astrocytes (20—30 cells per slice) and the background fluorescence (F0) measured in the same field where no labeled cells were detected. […]
The data are expressed as mean ± s.e.m., with “n” denoting the number of independent experiments. […]

For series [4], the target named is T1, Cx43 hemichannels. Put plainly: Etd+ uptake in cultured astrocytes treated with TNF-α/IL-1β. The class given is cell-based, mouse (OF1). The arrangement: endogenous in cells; host or cells: primary cortical astrocytes from newborn OF1 mice. The conditions noted are these: astrocyte cultures, "in the 250 μM range", read-out: Half-maximal effect concentration, hemichannels opened with TNF-α/IL-1β. As for the experimental part:
as §1
Hemichannel activity in cultured astrocytes was induced either by treatment with two pro-inflammatory cytokines, TNF-α and IL-1β (Retamal et al., [2007]) or by exposing the cells to a Ca^2+-free solution (Stout et al., [2002]). […] Captured images of Etd^+ uptake were analyzed with the Image J program (NIH software).
as §2

Series [5] is described as follows: Brain TAT immunostaining 1 h after intra-carotid injection. The class given is in vivo, mouse (C57Bl6). As for the experimental part: Two different approaches were used for in vivo delivery of TAT-Gap19. For acute experiments, 4 months old C57Bl6 male mice were subjected to intra-carotid injection of 45 mg/kg TAT-Gap19 (GenScript, Pistcataway, NJ, US) dissolved in saline. After 1 h the mice were deeply anesthetized with sodium pentobarbital (120 mg/kg intraperitoneally) and were transcardially perfused with cold ice phosphate-buffered saline (PBS) followed by perfusion with 10% formalin (Sigma-Aldrich, Oakville, Canada). Brains were removed and stored in 10% formalin and the next day were cryoprotected in 30% sucrose in PBS solution. Cortical brain sections, 10 μm thick, were collected and mounted sequentially on glass microscope slides. Immunohistochemistry was performed on the sections as previously described (Ozog et al., [2002]; Nakase et al., [2004]; Kozoriz et al., [2010]). Ten μm thick glass mounted sections were rehydrated in PBS and then blocked in PBS pH 7.4 containing 0.3% Triton-X-100 (TX100, Fisher Scientific) and 2% bovine serum albumin (BSA; Invitrogen, Canada) for 1 h, and incubated overnight in PBS containing 1.0% BSA, 0.3% TX100 and anti-TAT primary antibody (1/100 dilution; Cat # CB0888, Cell Applications, Inc., USA). The following day, the slices were washed with PBS (3 × 10 min) and subsequently incubated for 1 h with secondary antibody (anti-mouse IgG tagged with Alexa 488; Molecular Probes, USA) in PBS containing 1% BSA, 0.3% TX100. Slices were then rinsed 3 times for 10 min with PBS and mounted with ProLong Gold antifade reagent with DAPI. Images were obtained using the same exposure times on a Ziess Axiophot Epifluorescent microscope, Zeiss Canada, Toronto).

T1 sequence (P23242 whole entry): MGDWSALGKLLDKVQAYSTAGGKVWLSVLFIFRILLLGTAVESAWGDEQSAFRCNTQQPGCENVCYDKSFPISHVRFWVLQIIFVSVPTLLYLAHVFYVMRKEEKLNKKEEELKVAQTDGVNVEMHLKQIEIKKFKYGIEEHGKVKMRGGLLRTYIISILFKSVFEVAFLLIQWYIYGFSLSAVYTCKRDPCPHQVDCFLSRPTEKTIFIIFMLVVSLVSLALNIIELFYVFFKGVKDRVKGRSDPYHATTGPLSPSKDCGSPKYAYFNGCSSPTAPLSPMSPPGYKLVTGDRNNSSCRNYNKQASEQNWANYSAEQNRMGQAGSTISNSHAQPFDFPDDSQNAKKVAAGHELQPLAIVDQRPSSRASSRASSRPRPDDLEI
Connexin43 C-terminal tail, sequence (P17302 232-382): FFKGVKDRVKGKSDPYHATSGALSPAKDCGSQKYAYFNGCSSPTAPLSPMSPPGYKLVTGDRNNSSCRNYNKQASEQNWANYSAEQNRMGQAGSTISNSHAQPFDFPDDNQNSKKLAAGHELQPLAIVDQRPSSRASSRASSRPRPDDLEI
Gap19, sequence (P17302 whole entry, looked up): as the sequence (P23242 whole entry) above, with E124D, V164I, R243K, T251S, P253A, S257A, P263Q, S341N, A344S, V347L counted along it

Turning to `CC1(C)[C@@H](OC(=O)CCC(=O)O)CC[C@]2(C)[C@H]3C(=O)C=C4[C@@H]5C[C@@](C)(C(=O)O)CC[C@]5(C)CC[C@@]4(C)[C@]3(C)CC[C@@H]12` [carbenoxolone], the “Discrimination between gap junctions and hemichannels” value in the series on hemichannels (ref not printed at this statement (nearby: Takeuchi et al., 2011)) is “poorly discriminate between gap junctions and hemichannels”. For the same molecule, in series [1], the “Block of hemichannel activity induced by calcium-free solution” value is reported as “can be inhibited by carbenoxolone in hippocampal slices; also recorded: blocks hemichannel activity induced by a calcium free solution”. `[Gd+3]` [gadolinium (Gd^3+), gadolinium]: the Hemichannel-only effect entry in the series with hemichannels is recorded as “supposed to affect only hemichannels”.

As to `[La+3]` [lanthanum (La^3+), lanthanum], the Hemichannel-only effect entry in the series on hemichannels was “supposed to affect only hemichannels”. For the molecule “Connexin43 C-terminal tail (from UniProt P17302)”, in the series with Gap19, the Kd was 2.5 µM. As for KQIEIKKFK [Gap19, KQIEIKKFK], the IC50 is 142 µM on Cx43 hemichannels [2], about 250 µM at Cx43 hemichannels [3] and about 250 µM at Cx43 hemichannels [4]. Consider “YGRKKRRQRRRKQIEIKKFK [TAT-Gap19, YGRKKRRQRRR-KQIEIKKFK]”, for which the “TAT immunoreactivity in brain, 1 h after carotid injection” value in series [5] (45 mg/kg intra-carotid, 4 months old male mice, 1 h, anti-TAT antibody, compared with vehicle (PBS)) is listed as “readily detected throughout the brain; also recorded: clear TAT immunoreactivity”. Besides, the “TAT peptide in GFAP-positive astrocytes (double labeling anti-TAT/anti-GFAP)” value in series [5] (45 mg/kg intra-carotid, 1 h, cortex) is “some GFAP-positive astrocytes (white arrows) have taken up the TAT peptide; also recorded: reaches GFAP-positive astrocytes, however, several TAT-positive cells are apparently not GFAP-positive”. Moreover, the Blood-brain barrier crossing result in series [5] (in vivo injection, immunostaining for TAT moiety, intra-carotid and i.v. experiments taken together) is “traverses the blood-brain barrier and is retained in the cells; also recorded: can successfully cross the blood-brain barrier”.
